Reference: ChEMBL document CHEMBL3217509, “Discovery of an HIV integrase inhibitor with an excellent resistance profile” (Medchemcomm, 2013)

Tests used:
[1] = test system: Human immunodeficiency virus 1; experiment: Antiviral activity against HIV1 NL4-3 infected in human MT2 cells after 3 days by human JC53BL cell-based beta-galactosidase reporter gene assay; assay type: functional, organism-based; conditions: Human immunodeficiency virus 1, NL4-3, JC53BL, 72 h
[2] = Intrinsic clearance in human hepatocytes assessed assessed per million of cells by LC-MS/MS analysis; assay type: ADME, cell-based, Hepatocyte; conditions: read-out: CLH
[3] = Intrinsic clearance in human liver microsomes assessed per mg of protein by LC-MS/MS analysis in presence of UDPGA; assay type: ADME; conditions: read-out: CLH

SMILES: CC1(C)CN(O)C(=O)c2ncc3c(ccn3Cc3ccc(F)cc3)c21
- IC50 [1]: 1 nM
- hepatocyte CLint [2]: 64.7 µL/min/1e6 cells
- microsomal CLint [3]: 170 µL/min/mg
